This passage reports IC50 results from ChEMBL document CHEMBL2169825, “Development of selective, potent RabGGTase inhibitors” (J Med Chem, 2012).

The nature of test [1]: Inhibition of RabGGTase using NBD-FPP as substrate after 5 mins by fluorometric assay.
The subject of another test is A549. Nature of the test: Cytotoxicity against human A549 cells after 24 hrs by Alamar Blue assay. In kind it is functional, cell-based. As to conditions: A549, 24 h.
A short description of test [2]: Inhibition of RabGGTase using [3H]GGPP as substrate after 1 hr by scintillation proximity assay.
A further test concerns HeLa. Nature of the test: Cytotoxicity against human HeLa cells after 24 hrs by Alamar Blue assay. The class given is functional, cell-based.
Test [3] is described as follows: Inhibition of FTase using NBD-GPP as substrate after 10 mins by solution based fluorometric assay.
A short description of test [4]: Inhibition of GGTase 1 using NBD-FPP as substrate after 10 mins by solution based fluorometric assay.
A further test concerns HCT-116. Put plainly: Cytotoxicity against human HCT116 cells after 24 hrs by Alamar Blue assay. In kind it is functional, cell-based. As to conditions: HCT-116, 24 h.
The nature of test [5]: Inhibition of RabGGTase in human HeLa cells after 6 hrs by reprenylation assay. The class given is cell-based.
Another test relates to A2780. Nature of the test: Cytotoxicity against human A2780 cells after 24 hrs by Alamar Blue assay. In kind it is functional, cell-based. As to conditions: A2780, 24 h.
The test system of the next test is DU-145. Nature of the test: Cytotoxicity against human DU145 cells after 24 hrs by Alamar Blue assay. The class given is functional, cell-based. The following applies: DU-145, 24 h.
The subject of another test is PBMC. Put plainly: Cytotoxicity against human PBMC cells after 24 hrs by Alamar Blue assay. The class given is cell-based.
The nature of test [6]: Inhibition of rat RabGGTase using [3H]GGPP as substrate after 30 mins by scintillation counter.

For `COc1ccc(S(=O)(=O)N2Cc3cc(C#N)ccc3N(Cc3cncn3C)C[C@H]2Cc2ccc(OCC=C(C)C)cc2)cc1`, the IC50 in [1] was 39 nM; with A549, 74 nM; in test [2] it was 63 nM; in the test with HeLa, 59 nM; in test [3] it was 15 nM; in [4], greater than 99500 nM. Moreover, the IC50 with HCT-116 stood at 112 nM; in test [5] it was 43 nM; with A2780, 116 nM; with DU-145, 90 nM; in the test with PBMC, 8030 nM.

`COc1ccc(S(=O)(=O)N2Cc3cc(C#N)ccc3N(Cc3cncn3C)C[C@H]2Cc2ccccc2)cc1`: the IC50 in test [1] was found to be 724 nM; with A549, 99 nM; in test [2], 6.4 nM; in the test on HeLa it was 101 nM; in test [6] it was 21 nM; in [3], 6 nM. The IC50 was greater than 99500 nM in test [4]; 63 nM with HCT-116; 74 nM in test [5]; 43 nM in the test on A2780; 70 nM in the test on DU-145; greater than 10000 nM with PBMC.

For the compound `COc1ccc(S(=O)(=O)N2Cc3cc(C#N)ccc3N(Cc3cncn3C)C[C@H]2Cc2ccc(OC(=O)NCc3ccccc3)cc2)cc1`, the IC50 in test [1] was 72.2 nM; in the test with A549 it was 338 nM; in the test on HeLa, 151 nM; in [4], greater than 99500 nM; in the test with HCT-116 it was 231 nM; in [5] it was 81 nM. Besides, the results for the IC50 in the test with A2780, with DU-145 and in the test on PBMC were 130 nM, 142 nM and greater than 10000 nM, respectively.

As for `CCCCOc1ccc(C[C@@H]2CN(Cc3cncn3C)c3ccc(C#N)cc3CN2S(=O)(=O)c2ccc(OC)cc2)cc1`, the IC50 in test [1] is 162 nM; in the test on A549, 216 nM; in [2] it was 156 nM; with HeLa, 154 nM; in test [3], 10 nM; in test [4] it was greater than 99500 nM. Also, the concentration for half-maximal inhibition (IC50) is 264 nM in the test with HCT-116; 307 nM in [5]; 165 nM with A2780; 241 nM in the test with DU-145; 8690 nM in the test on PBMC.

Take `COc1ccc(S(=O)(=O)N2Cc3cc(C#N)ccc3N(Cc3cncn3C)C[C@H]2Cc2ccc(-c3cccnc3)cc2)cc1`: the IC50 stood at 353 nM in test [1]; 442 nM with A549; 11 nM in test [2]; 409 nM in the test on HeLa; 4.3 nM in test [3]; 3630 nM in test [4]. The IC50 in the test with HCT-116 was 308 nM; in test [5] it was 466 nM; with A2780, 399 nM; with DU-145 it was 413 nM; in the test on PBMC it was greater than 10000 nM.
